Laboratory results: US12215116B2, “Arginase inhibitors and methods of use” (Merck Sharp & Dohme LLC, priority 2018, dated 2025)

Target: T1, Arginase (ARG1 enzyme) (Homo sapiens, UniProt P05089)
T1 construct: made in house; host or cells: Escherichia coli
T1 sequence (P05089 1-322): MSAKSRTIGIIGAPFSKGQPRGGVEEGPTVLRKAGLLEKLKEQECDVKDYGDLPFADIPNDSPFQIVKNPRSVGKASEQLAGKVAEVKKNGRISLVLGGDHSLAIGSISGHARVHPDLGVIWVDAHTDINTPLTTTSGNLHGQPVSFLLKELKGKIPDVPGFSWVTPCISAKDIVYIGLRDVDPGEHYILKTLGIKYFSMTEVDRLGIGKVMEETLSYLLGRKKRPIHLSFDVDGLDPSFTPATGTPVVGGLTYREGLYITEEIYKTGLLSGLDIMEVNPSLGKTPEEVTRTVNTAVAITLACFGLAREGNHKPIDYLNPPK
Assay: Arginase Thioornithine Generating Assay (TOGA)
Assay type: biochemical
Details: 1.88 nM arginase, thioarginine substrate, fluorescence readout
Procedure: Arginase Thioornithine Generating Assay (TOGA)
Compounds were serially diluted in ten 3-fold steps in DMSO starting from 10 mM DMSO stocks. Compound dilutions or DMSO alone were then dispensed from the dilution plate into a Greiner black 384-well assay plate (catalog #781086) using an Echo 555 acoustic liquid handler (Labcyte).
Arginase protein was recombinantly expressed in Escherichia coli. Purified protein was then diluted in assay buffer (50 mM Tris pH 7.5, 50 mM NaCl, 1 mM manganese chloride, 0.05% bovine serum albumin to obtain a final Arginase concentration of 1.88 nM. Arginase solution (20 μL) or buffer alone (20 μL) were dispensed to wells of the assay plate using a BioRAPTR liquid dispenser (Beckman Coulter). Assay plates containing compound and ARG1 enzyme were incubated at room temperature for 30 minutes. Afterwards, 5 μL of 2.5 mM thioarginine (Cayman Chemicals) in assay buffer were added to each well of the assay plate using a BioRAPTR liquid dispenser. Plates were incubated at room temperature for 60 minutes and reactions were quenched by addition of 15 μL of […] 7-Diethylamine-3-(4-maleimidophenyl)-4-methylcoumarin (Sigma Chemical) in 70% ethanol. Plates were briefly shaken to mix and the fluorescence was measured in an Spectramax plate reader (Molecular Devices) with a 410 nm excitation wavelength and an 490 nm emission wavelength.
Potencies were calculated by […] to the four parameter logistic IC50 equation.

Row | IC50 [nM] | Compound
1 | 1520 | O=C(O)C1CNCC1CCCB(O)O (single isomer, unassigned) [Example 21D, 4-[3-(dihydroxyboranyl)propyl]pyrrolidine-3-carboxylic acid]
2 | 29.5 | NC[C@@H]1C[C@@H](CCCB(O)O)[C@@H](C(=O)O)N1 [Example 60A, (2S,3R,5S)-5-(aminomethyl)-3-(3-boronopropyl)pyrrolidine-2-carboxylic acid]
3 | > 10000 | NC1CN[C@H](C(=O)O)C1CCCB(O)O (single isomer, unassigned) [Example 33B]
4 | 83300 | O=C(O)[C@@H]1NCCC[C@H]1CCCB(O)O [Example 1C, (2R,3R)-3-[3-(dihydroxyborany)propy]piperidinyl-2-carboxylic acid]
5 | 85 | C[C@@]1(CCCB(O)O)[C@@H](CN)CN[C@@H]1C(=O)O [Example 77, (2S,3R,4S)-4-(aminomethyl)-3-(3-boronopropyl)-3-methylpyrrolidine-2-carboxylic acid]
6 | 1780 | NC[C@H]1C[C@H](CCCB(O)O)[C@H](C(=O)O)N1 [Example 60B, (2R,3S,5R)-5-(aminomethyl)-3-(3-boronopropyl)pyrrolidine-2-carboxylic acid]
7 | 20.8 | O=C(O)[C@@]1(CCN2CCC2)NCC[C@H]1CCCB(O)O [Example 56]
8 | > 10000 | C[C@@]1(CCCB(O)O)[C@H](O)CN[C@@H]1C(=O)O [Example 69, (2S,3S,4S)-3-(3-boronopropyl)-4-hydroxy-3-methylpyrrolidine-2-carboxylic acid]
9 | 377 | O=C(O)[C@H]1NCCC[C@H]1CCCB(O)O (single isomer, unassigned) [Example 1B]
10 | 139 | C[C@]1(CCCB(O)O)[C@@H](C(=O)O)NC[C@@H]1C(F)F [Example 81, (2S,3R,4R)-3-(3-boronopropyl)-4-(difluoromethyl)-3-methylpyrrolidine-2-carboxylic acid]
11 | 343 | CC(C)(O)[C@@]1(CCCB(O)O)CN[C@@H]1C(=O)O [Example 68, (2S,3S)-3-(3-boronopropyl)-3-(2-hydroxypropan-2-yl)azetidine-2-carboxylic acid]
12 | 7.18 | NC[C@@]1(CCCB(O)O)CCN[C@@H]1C(=O)O [Example 85, (2S,3R)-3-(aminomethyl)-3-(3-boronopropyl)pyrrolidine-2-carboxylic acid]
13 | 48.6 | C[C@H]1N[C@H](C(=O)O)[C@](C)(CCCB(O)O)[C@H]1O [Example 74A, (2S,3S,4R,5R)-3-(3-boronopropyl)-4-hydroxy-3,5-dimethylpyrrolidine-2-carboxylic acid]
14 | 3660 | O=C(O)[C@@H]1NCCC[C@@H]1CCCB(O)O (single isomer, unassigned) [Example 1A]
15 | 19.3 | O=C(O)[C@H]1NCC[C@@]1(CO)CCCB(O)O [Example 83, (2S,3S)-3-(3-boronopropyl)-3-(hydroxymethyl)pyrrolidine-2-carboxylic acid]
16 | 311 | O=C(O)[C@@]1(CO)NCC[C@H]1CCCB(O)O [Example 59A, (2R,3R)-3-(3-boronopropyl)-2-(hydroxymethyl)pyrrolidine-2-carboxylic acid]

Row | IC50 [nM] | Compound
17 | 99000 | O=C(O)C1NCCNC1CCCB(O)O (stereo not shown) [Example 7, 3-[3-(dihydroxyboranyl)propyl]piperazine-2-carboxylic acid]
18 | 84 | O=C(O)C1(CCN2CCCCC2)NCCC1CCCB(O)O (stereo not shown) [Example 11, 3-(3-boronopropyl)-2-(2-(piperidin-1-yl)ethyl)pyrrolidine-2-carboxylic acid]
19 | 0.778 | N[C@H](C(=O)N[C@H]1CN[C@H](C(=O)O)[C@@H]1CCCB(O)O)C1CCCC1 [Example 40, (2S,3R,4R)-4-((S)-2-amino-2-cyclopentylacetamido)-3-(3-boronopropyl)pyrrolidine-2-carboxylic acid]
20 | > 10000 | O=C(O)C1CNCC1CCCB(O)O (single isomer, unassigned) [Example 21A, 4-[3-(dihydroxyboranyl)propyl]pyrrolidine-3-carboxylic acid]
21 | > 10000 | O=C(O)[C@H]1NC[C@@H](O)[C@]1(F)CCCB(O)O [Example 92C, (2R,3S,4R)-3-(3-boronopropyl)-3-fluoro-4-hydroxypyrrolidine-2-carboxylic acid]
22 | 112 | NC[C@]1(C(=O)O)NCC[C@H]1CCCB(O)O (relative stereo) [Example 57A, 2-(aminomethyl)-3-(3-boronopropyl)pyrrolidine-2-carboxylic acid]
23 | 439 | CN(C)C[C@@H]1C[C@@H](CCCB(O)O)[C@@H](C(=O)O)N1 [Example 61, (2S,3R,5S)-3-(3-boronopropyl)-5-((dimethylamino)methyl)pyrrolidine-2-carboxylic acid]
24 | 17.7 | C[C@]1(CCCB(O)O)[C@@H](C(=O)O)NC[C@@H]1O [Example 76, (2S,3S,4R)-3-(3-boronopropyl)-4-hydroxy-3-methylpyrrolidine-2-carboxylic acid]
25 | 7 | CNC[C@@]1(CCCB(O)O)CCN[C@@H]1C(=O)O [Example 87, (2S,3R)-3-(3-boronopropyl)-3-((methylamino)methyl)pyrrolidine-2-carboxylic acid]
26 | 602 | O=C(O)C1CNCC1CCCB(O)O (single isomer, unassigned) [Example 21B, 4-[3-(dihydroxyboranyl)propyl]pyrrolidine-3-carboxylic acid]
27 | > 10000 | O=C(O)C1NCCCC1OCCB(O)O (stereo not shown) [Example 3, 3-[2-(dihydroxyboranyl)ethoxy]piperidinyl-2-carboxylic acid]
28 | 8040 | O=C(O)C1NCC[C@@H]1CCCB(O)O (single isomer, unassigned) [Example 9B]
29 | 2910 | O=C(O)C[C@@]1(CCCB(O)O)[C@H](O)CN[C@@H]1C(=O)O [Example 90, (2S,3R,4S)-3-(3-boronopropyl)-3-(carboxymethyl)-4-hydroxypyrrolidine-2-carboxylic acid]
30 | 475 | O=C(O)[C@H]1NC[C@@H](O)[C@@H]1CCCB(O)O (single isomer, unassigned) [Example 20A]
31 | 7.71 | O=C(O)[C@H]1N[C@H](CO)C[C@H]1CCCB(O)O [Example 63, (2S,3R,5S)-3-(3-boronopropyl)-5-(hydroxymethyl)pyrrolidine-2-carboxylic acid]
32 | 13 | O=C(O)[C@H]1NC[C@@]1(CO)CCCB(O)O [Example 65, (2S,3S)-3-(3-boronopropyl)-3-(hydroxymethyl)azetidine-2-carboxylic acid]

Row | Compound | IC50 [nM]
33 | CC(=O)N[C@H]1CN[C@H](C(=O)O)[C@@H]1CCCB(O)O [Example 50, (2S,3R,4R)-4-acetamido-3-(3-boronopropyl)pyrrolidine-2-carboxylic acid] | 247
34 | O=C(O)[C@H]1NC[C@@H]1CCCB(O)O [Example 8A, (2S,3S)-3-[3-(dihydroxyboranyl)propyl]azetidine-2-carboxylic acid] | 340
35 | O=C(O)[C@H]1NC[C@H]1CCCB(O)O [Example 8B, (2S,3R)-3-[3-(dihydroxyboranyl)propyl]azetidine-2-carboxylic acid] | 447
36 | CN[C@H]1CN[C@H](C(=O)O)[C@@H]1CCCB(O)O [Example 29, (2S,3R,4R)-3-(3-boronopropyl)-4-(methylamino)pyrrolidine-2-carboxylic acid] | 20.1
37 | O=C(O)[C@H]1NCC[C@@H]1CCCB(O)O [Example 15B, (3S)-3-[3-(dihydroxyboranyl)propyl]-L-proline] | 413
